Reference: publication PMC10439158, “The net electrostatic potential and hydration of ABCG2 affect substrate transport” (Nature Communications, 2023)
Residue numbers refer to the chain shown, from its start.

How the values were obtained:
[1] = target: T1, ABCG2 (Homo sapiens, UniProt Q9UNQ0); test: cell-based; set-up: full-length ABCG2-WT in MEF cells; species or system Abcg2-KO MEFs expressing human ABCG2-WT; Inhibition of ABCG2-mediated Hoechst 33342 efflux; intracellular Hoechst 33342 fluorescence accumulation, normalized to vector control; settings: 0.5 uM Hoechst 33342 substrate, 2 h, 37 °C; read-out: IC50 for transport inhibition in WT
T1 sequence (Q9UNQ0 1-655): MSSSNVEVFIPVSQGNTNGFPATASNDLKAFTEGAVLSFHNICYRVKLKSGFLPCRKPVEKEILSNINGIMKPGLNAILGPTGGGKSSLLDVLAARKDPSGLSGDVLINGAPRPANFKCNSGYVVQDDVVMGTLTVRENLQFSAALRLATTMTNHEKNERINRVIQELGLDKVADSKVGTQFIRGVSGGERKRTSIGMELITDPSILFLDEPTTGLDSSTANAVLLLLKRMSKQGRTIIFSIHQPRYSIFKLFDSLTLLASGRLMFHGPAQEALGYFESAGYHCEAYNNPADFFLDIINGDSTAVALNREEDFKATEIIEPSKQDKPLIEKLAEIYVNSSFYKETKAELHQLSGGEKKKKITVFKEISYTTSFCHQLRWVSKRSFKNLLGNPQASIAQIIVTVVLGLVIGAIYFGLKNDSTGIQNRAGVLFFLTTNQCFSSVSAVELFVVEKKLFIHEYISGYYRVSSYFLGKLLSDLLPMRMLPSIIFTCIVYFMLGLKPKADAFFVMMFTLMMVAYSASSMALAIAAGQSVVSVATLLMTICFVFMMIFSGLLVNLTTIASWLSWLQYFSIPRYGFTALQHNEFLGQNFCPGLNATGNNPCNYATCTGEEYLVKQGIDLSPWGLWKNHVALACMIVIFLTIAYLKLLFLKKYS
Method: The intracellular accumulation of fluorescent Hoechst 33342, pheophorbide a, chlorin e6, and purpurin 18, ABCG2 substrates, was used to determine the function of ABCG2. […] Thereafter, the medium was removed, and cells were washed twice with 200 μL ice-cold PBS and the fluorescence of Hoechst 33342 was then quantitatively determined with a Synergy H4 microplate reader (BioTek, Winooski, VT, USA) at an excitation wavelength of 355 nm and an emission wavelength of 460 nm. The accumulation of Hoechst 33342 was normalized to protein concentration as determined using the BCA Protein Assay Kit (Pierce, Rockford, IL, USA). The data were normalized by the proportion accumulated relative (%) to vector control. For the time-dependent Hoechst 33342 accumulation assay, 10 μM Hoechst 33342 was treated for different time periods (0.5, 1, 1.5, 2, 5, 10, 20, 30, 60, and 90 min). Relative intracellular Hoechst 33342 levels in the MEFs were normalized to vector control at 90 min. For the other fluorescent substrate accumulation assay, 0.5 μM pheophorbide a, 5 μM chlorin e6, or 5 μM purpurin 18 were treated for 1 h at 37 °C in the dark. The intracellular accumulation of pheophorbide a, purpurin 18, or chlorin e6 was measured at an excitation wavelength of 405 nm and an emission wavelength of 667 nm. […] Thereafter, the medium was removed and cells were washed twice with 1 mL ice-cold PBS. […] The total radioactivity was measured by liqu Apparent EC50 and IC50 values were calculated from dose-response data using nonlinear regression analysis. All experiments were independently repeated at least three times. […] Non-polar residues are grey, polar residues are green, and acidic residues are red.

[2] = target: T2, ABCG2 E211Q (Homo sapiens, UniProt Q9UNQ0, E211Q); test: biochemical; set-up: species or system ABCG2 membrane vesicles; Hoechst 33342 concentration-dependent thermal stabilization of ABCG2, western blot read-out, without ATP; settings: thermal stabilization, without ATP
T2 construct: full-length ABCG2-WT in membrane vesicles
T2 sequence (Q9UNQ0 1-655 E211Q): T1 sequence (Q9UNQ0 1-655) with E211Q
Excerpt: (§1) The difference between ABCG-WT and ABCG2-N436A was not due to a difference in Hoechst 33342 initial uptake, given that the initial rate of uptake was linear and the slopes virtually identical for ABCG2-WT and ABCG2-N436A (Fig. 1d). The steady-state level of Hoechst 33342 was twofold lower in ABCG2-N436A cells (Fig. 1d). Steady-state drug levels represent an equilibrium between uptake and efflux rates, which can be used to estimate the rate of drug efflux. The twofold lower steady-state level of Hoechst 33342 in cells expressing ABCG2-N436A, therefore, indicates an estimated twofold increase in efflux (Fig. 1d). Direct monitoring of Hoechst 33342 efflux is not possible because of its avidity for binding to the minor groove of DNA, leaving little free Hoechst 33342 available for assessing efflux. This effect is also responsible for Hoechst 33342’s cytotoxicity, a property that we utilized as an additional approach to assess ABCG2 transport activity. […] The greater reduction in Hoechst 33342 cytotoxicity in ABCG2-N436A may be because Hoechst 33342 cytotoxicity occurs by a dual process of DNA binding and topoisomerase inhibition, both of which promote cytotoxic DNA damage. […] Consistent with the lower EC50 value of ATP (0.3 mM) for ABCG2-N436A, ABCG2-N436A was thermally stabilized by the non-hydrolyzable ATP analog AMP-PNP at lower concentrations than ABCG2-WT

[3] = target: T3, ABCG2 K86M (Homo sapiens, UniProt Q9UNQ0, K86M); test: biochemical; set-up: species or system ABCG2 membrane vesicles; Hoechst 33342 concentration-dependent thermal stabilization of ABCG2, western blot read-out, without ATP; settings: thermal stabilization, without ATP
T3 construct: full-length ABCG2-WT in membrane vesicles
T3 sequence (Q9UNQ0 1-655 K86M): T1 sequence (Q9UNQ0 1-655) with K86M
Excerpt: as §1

[4] = target: T4, ABCG2 (Homo sapiens, UniProt Q9UNQ0); test: isothermal shift assay on membranes; inhibition of vanadate-sensitive ATPase in membranes; transport assay; type: biochemical
T4 construct: full-length ABCG2-WT in membrane vesicles

[5] = target: T1, ABCG2; test: biochemical; set-up: full-length ABCG2-WT in membrane vesicles; species or system ABCG2 membrane vesicles; Hoechst 33342 concentration-dependent thermal stabilization of ABCG2, western blot read-out, without ATP; settings: thermal stabilization, without ATP
[6] = target: T1, ABCG2; test: cell-based; set-up: full-length ABCG2-WT in MEF cells; species or system MEF (mouse embryonic fibroblasts) expressing human ABCG2-WT; Inhibition of ABCG2-mediated Hoechst 33342 transport; intracellular Hoechst 33342 fluorescence accumulation; settings: ABCG2-WT, 0.5 uM Hoechst 33342; read-out: Hoechst 33342 transport inhibition IC50
Method: The intracellular accumulation of fluorescent Hoechst 33342, pheophorbide a, chlorin e6, and purpurin 18, ABCG2 substrates, was used to determine the function of ABCG2. For Hoechst 33342 accumulation assay, MEFs were seeded into a 96-well black clear bottom plate (Corning #3603) at 20,000 cells/well and 0.5 μM Hoechst 33342, and either [compound left out] or the test inhibitor (0.002–10 μM) were added to the culture medium followed by incubation for 2 h at 37 °C in the dark. Thereafter, the medium was removed, and cells were washed twice with 200 μL ice-cold PBS and the fluorescence of Hoechst 33342 was then quantitatively determined with a Synergy H4 microplate reader (BioTek, Winooski, VT, USA) at an excitation wavelength of 355 nm and an emission wavelength of 460 nm. The accumulation of Hoechst 33342 was normalized to protein concentration as determined using the BCA Protein Assay Kit (Pierce, Rockford, IL, USA). […] The intracellular accumulation of pheophorbide a, purpurin 18, or chlorin e6 was measured at an excitation wavelength of 405 nm and an emission wavelength of 667 nm. […] The total radioactivity was measured by liqu Fig. 4 N436A substitution affects inhibitor interaction. a–d Representative snapshots from MDS of tariquidar interacting with ABCG2. a ABCG2-WT with residues within 4 Å of tariquidar are in surface representation. […]

CCCS(=O)(=O)Nc1ccc(F)c(C(=O)c2c[nH]c3ncc(-c4ccc(Cl)cc4)cc23)c1F [Vemurafenib]
IC50 [1]: 4.15 µM

CNC(=O)c1cc(Oc2ccc(NC(=O)Nc3ccc(Cl)c(C(F)(F)F)c3)cc2)ccn1 [Sorafenib]
IC50 [1]: 4.34 µM

CCOc1ccc(-c2nc3cc(-c4nc5cc(N6CCN(C)CC6)ccc5[nH]4)ccc3[nH]2)cc1 [Hoechst 33342]
EC50 [2]: 16 ± 3 µM | EC50 [3]: 31 ± 1 µM | IC50 [4]: 35 µM | EC50 [5]: 8.8 ± 1.9 µM

CNC(=O)c1ccccc1Sc1ccc2c(/C=C/c3ccccn3)n[nH]c2c1 [Axitinib]
IC50 [6]: 6.04 µM

C#Cc1cccc(Nc2ncnc3cc(OCCOC)c(OCCOC)cc23)c1 [Erlotinib]
IC50 [1]: 0.77 µM

COc1cc2nccc(Oc3ccc(NC(=O)C4(C(=O)Nc5ccc(F)cc5)CC4)cc3)c2cc1OC [Cabozantinib]
IC50 [1]: 2.4 µM
